The target of one data set is T1, Human DNA pol α (Homo sapiens, UniProt P09884).
T1 sequence (P09884 1-1462): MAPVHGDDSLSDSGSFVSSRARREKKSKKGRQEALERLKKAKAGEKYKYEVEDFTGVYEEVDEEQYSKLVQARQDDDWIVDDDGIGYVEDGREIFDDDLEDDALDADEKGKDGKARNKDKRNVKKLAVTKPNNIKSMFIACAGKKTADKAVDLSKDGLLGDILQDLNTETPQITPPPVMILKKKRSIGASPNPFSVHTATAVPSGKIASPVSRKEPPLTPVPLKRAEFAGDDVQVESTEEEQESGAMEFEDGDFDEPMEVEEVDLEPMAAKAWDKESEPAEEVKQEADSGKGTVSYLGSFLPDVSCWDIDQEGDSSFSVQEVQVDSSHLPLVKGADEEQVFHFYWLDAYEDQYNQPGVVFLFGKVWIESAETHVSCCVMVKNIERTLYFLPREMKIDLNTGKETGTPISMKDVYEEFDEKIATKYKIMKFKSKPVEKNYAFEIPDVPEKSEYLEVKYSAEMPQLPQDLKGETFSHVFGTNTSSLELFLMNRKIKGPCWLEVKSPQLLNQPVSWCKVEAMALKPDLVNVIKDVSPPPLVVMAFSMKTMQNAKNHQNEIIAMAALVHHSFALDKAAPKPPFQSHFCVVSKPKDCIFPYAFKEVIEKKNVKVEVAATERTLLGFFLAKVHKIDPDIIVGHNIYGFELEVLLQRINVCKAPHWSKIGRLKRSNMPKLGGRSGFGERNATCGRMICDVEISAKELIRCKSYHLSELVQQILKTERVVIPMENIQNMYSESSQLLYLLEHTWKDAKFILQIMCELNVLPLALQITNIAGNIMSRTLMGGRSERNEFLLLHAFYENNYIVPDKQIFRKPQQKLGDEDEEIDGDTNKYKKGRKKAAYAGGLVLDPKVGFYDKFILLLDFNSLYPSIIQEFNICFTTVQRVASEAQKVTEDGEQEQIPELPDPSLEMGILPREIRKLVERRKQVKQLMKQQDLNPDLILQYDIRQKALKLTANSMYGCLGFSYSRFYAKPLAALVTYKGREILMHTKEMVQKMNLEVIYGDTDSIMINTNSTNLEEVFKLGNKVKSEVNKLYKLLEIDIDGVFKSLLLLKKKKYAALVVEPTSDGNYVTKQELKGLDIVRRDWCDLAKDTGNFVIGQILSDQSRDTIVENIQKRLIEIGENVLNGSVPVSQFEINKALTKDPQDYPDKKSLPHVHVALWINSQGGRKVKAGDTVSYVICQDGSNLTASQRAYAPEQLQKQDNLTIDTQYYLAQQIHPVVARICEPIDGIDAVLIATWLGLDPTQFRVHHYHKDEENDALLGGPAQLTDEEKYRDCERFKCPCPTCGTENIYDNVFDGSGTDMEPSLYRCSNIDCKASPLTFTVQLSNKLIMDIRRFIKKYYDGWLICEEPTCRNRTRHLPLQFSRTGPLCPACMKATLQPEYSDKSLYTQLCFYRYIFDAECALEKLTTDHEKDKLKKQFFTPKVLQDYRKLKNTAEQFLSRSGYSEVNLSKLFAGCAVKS
As to the kind of experiment: Human DNA Polymerase Inhibition Assay, pol α. The data set is classed as biochemical.

In the next data set the target is T2, Human DNA pol γ (Homo sapiens, UniProt P54098).
T2 sequence (P54098 1-1239): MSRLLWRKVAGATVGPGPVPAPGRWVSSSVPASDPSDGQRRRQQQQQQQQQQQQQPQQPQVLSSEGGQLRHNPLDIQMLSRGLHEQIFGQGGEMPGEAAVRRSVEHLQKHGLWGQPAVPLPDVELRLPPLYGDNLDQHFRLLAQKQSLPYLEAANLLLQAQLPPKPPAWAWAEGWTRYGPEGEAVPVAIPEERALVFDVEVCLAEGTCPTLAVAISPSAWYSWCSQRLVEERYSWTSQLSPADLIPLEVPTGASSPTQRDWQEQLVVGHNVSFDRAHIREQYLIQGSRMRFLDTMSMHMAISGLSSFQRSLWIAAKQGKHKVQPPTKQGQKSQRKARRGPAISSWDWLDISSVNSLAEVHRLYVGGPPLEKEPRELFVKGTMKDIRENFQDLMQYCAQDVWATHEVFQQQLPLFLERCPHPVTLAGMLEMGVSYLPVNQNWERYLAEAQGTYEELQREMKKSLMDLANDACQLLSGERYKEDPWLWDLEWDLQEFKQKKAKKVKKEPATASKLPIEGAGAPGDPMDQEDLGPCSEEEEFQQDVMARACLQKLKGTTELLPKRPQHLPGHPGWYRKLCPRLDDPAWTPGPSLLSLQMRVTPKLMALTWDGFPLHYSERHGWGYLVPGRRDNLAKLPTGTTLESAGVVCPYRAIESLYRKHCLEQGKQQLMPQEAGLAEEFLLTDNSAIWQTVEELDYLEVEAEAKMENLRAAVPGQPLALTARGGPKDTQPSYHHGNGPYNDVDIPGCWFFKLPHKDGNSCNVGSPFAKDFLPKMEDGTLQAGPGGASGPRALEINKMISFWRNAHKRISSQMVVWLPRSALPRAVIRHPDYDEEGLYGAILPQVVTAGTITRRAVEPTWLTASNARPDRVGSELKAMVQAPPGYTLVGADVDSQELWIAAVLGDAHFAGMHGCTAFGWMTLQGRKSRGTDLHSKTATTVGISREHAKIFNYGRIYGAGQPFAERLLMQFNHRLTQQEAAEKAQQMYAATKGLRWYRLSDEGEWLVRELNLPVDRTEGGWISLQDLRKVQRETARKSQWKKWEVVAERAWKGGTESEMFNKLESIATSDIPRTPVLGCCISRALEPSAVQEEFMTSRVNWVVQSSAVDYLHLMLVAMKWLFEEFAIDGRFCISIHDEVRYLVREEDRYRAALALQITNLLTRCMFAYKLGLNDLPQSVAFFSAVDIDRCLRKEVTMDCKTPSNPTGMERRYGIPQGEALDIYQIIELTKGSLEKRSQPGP
In words: Human DNA Polymerase Inhibition Assay, pol γ. The data set is classed as biochemical.

The test system of another data set is Dengue Type 2. In words: Anti-Dengue Virus Cytoprotection Assay, Dengue Type 2.
A short description of data set [1]: Anti-Dengue assay, toxicity (XTT) in Huh-7 cells. The settings on record: human. On the technique in general: Tetrazolium dyes change colour on reduction, which living cells bring about.
Data set [2] in a line: Anti-Dengue assay, toxicity (XTT) in Vero cells. The conditions noted are these: monkey.

Like-named read-outs stand apart in the source and are kept apart here.

As a reminder, the IC50 is the midpoint of a concentration-inhibition curve. On to `C[C@@]1(O)[C@H](O)[C@@H](COP(=O)(O)OP(=O)(O)OP(=O)(O)O)O[C@H]1n1ccc(=O)[nH]c1=S`, for which the IC50 at Human DNA pol α and at Human DNA pol γ was greater than 1000 µM in each case.
Usually EC50 stands for the concentration needed to bring the measured effect to its halfway point. Broadly, the CC50 is the concentration that lowers cell viability or growth by half. Regarding `CC(C)OC(=O)[C@H](C)NP(=O)(OC[C@H]1O[C@@H](n2ccc(=O)[nH]c2=S)[C@](C)(O)[C@@H]1O)Oc1ccccc1` (stereo partly drawn) [drawing 474], the EC50 turned out to be 5.1 µM with Dengue Type 2 (Huh-7, read-out: Dengue Type 2 Huh-7 Cells (EC50 uM)) and 2.02 µM in the data set with Dengue Type 2 (Vero, read-out: Dengue Type 2 Vero Cells (EC50 uM)). The CC50 in data set [1] and in data set [2] was greater than 100 µM throughout.

Values taken from patent publication EP4817687A2, “NUCLEOTIDE AND NUCLEOSIDE THERAPEUTIC COMPOSITIONS AND USES RELATED THERETO” (Emory University, priority 2013, dated 2015).
